Among the data in patent US6821980B1, “Substituted 5-benzyl-2,4-diaminopyrimidines” (Basilea Pharmaceutica AG, priority 1999, dated 2004) are MIC and IC50 values, retold here.

In brackets after ≈: the same amount, converted by molar mass. Read-outs that look alike come from different tables or passages of the source.

In general, IC50 refers to the concentration that inhibits the measured activity by half. A higher IC50 goes with a need for much substance.

The subject of assay [1] is Streptococcus pneumoniae 1/1. The assay is described as follows: MIC against Streptococcus pneumoniae 1/1. The assay is classed as cell-based. The conditions noted are these: Streptococcus pneumoniae 1/1, trimethoprim- and penicillin-resistant, serotype 6, clinical isolate, read-out: MIC Sp1/1.
The test system of assay [2] is Staphylococcus aureus 101. Kind of assay: MIC against Staphylococcus aureus 101. It is filed as cell-based. The conditions noted are these: Staphylococcus aureus 101, MRSA- and trimethoprim-resistant, clinical isolate, read-out: MIC Sa101.
Assay [3] has as its target T1, purified DHFR of strain Sp1/1 of Streptococcus pneumoniae (Streptococcus pneumoniae serotype 4, UniProt Q54801).
T1 sequence (Q54801 1-168 I100L): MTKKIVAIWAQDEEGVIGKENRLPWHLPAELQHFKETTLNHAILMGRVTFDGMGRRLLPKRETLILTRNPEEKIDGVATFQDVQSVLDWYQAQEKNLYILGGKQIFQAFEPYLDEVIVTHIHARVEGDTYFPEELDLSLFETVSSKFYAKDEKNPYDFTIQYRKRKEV
The assay is classed as biochemical. The conditions noted are these: IC50 against purified DHFR of strain Sp1/1.

The target of assay [4] is purified DHFR of strain 157/4696 of Staphylococcus aureus (Staphylococcus aureus, UniProt P13955). Kind of assay: biochemical.
Sequence of purified DHFR of strain 157/4696 of Staphylococcus aureus (P13955 whole entry): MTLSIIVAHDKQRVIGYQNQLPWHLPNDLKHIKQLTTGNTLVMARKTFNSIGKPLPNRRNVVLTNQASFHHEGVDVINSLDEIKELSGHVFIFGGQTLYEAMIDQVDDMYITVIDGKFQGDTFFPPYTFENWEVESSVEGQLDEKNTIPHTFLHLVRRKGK

For the molecule `CCOc1cc(Cc2cnc(N)nc2N)cc(OS(=O)(=O)N(C)CC)c1-c1ccc(O)cc1` [Example 20-g, N-Ethyl-N-methyl-sulphamic acid 4-(2,4-diamino-pyrimidin-5-ylmethyl)-6-ethoxy-4′-hydroxy-biphenyl-2-yl ester], the MIC came out at 1 µg/mL (≈ 2.11 µM) in assay [1] (Table 2) and 2 µg/mL (≈ 4.22 µM) in assay [2] (Table 2). The IC50 in assay [3] (Table 2) came out at 7.2 nM; in assay [4], 160 nM.
As to `CCOc1cc(Cc2cnc(N)nc2N)cc(OS(=O)(=O)N(CC)CC)c1-c1ccc(O)cc1` [Example 20-h, Diethyl-sulphamic acid 4-(2,4-diamino-pyrimidin-5-ylmethyl)-6-ethoxy-4′-hydroxy-biphenyl-2-yl ester], the MIC turned out to be 1 µg/mL (≈ 2.05 µM) in assay [1] (Table 2) and 2 µg/mL (≈ 4.1 µM) in assay [2] (Table 2). Moreover, the IC50 in assay [3] (Table 2) stood at 9.2 nM; in assay [4] it was 350 nM.
The matching figures for `CCOc1cc(Cc2cnc(N)nc2N)cc(OS(=O)(=O)N(C)C)c1-c1ccc(OC)cc1` [Example 21-, Dimethylsulphamic acid 4-(2,4-diamino-pyrimidin-5-ylmethyl)-6-ethoxy-4′-methoxy-biphenyl-2-yl ester]: 2 µg/mL (≈ 4.22 µM), 2 µg/mL (≈ 4.22 µM), 52 nM and 130 nM.
In the case of `CCOc1cc(Cc2cnc(N)nc2N)cc(OS(=O)(=O)N(C)C)c1-c1ccc(N)cc1` [Example 22-a, Dimethylsulphamic acid 4′-amino-4-(2,4-diamino-pyrimidin-5-ylmethyl)-6-ethoxy-biphenyl-2-yl ester], the values for the MIC in assay [1] (Table 2) and in assay [2] (Table 2) were 1 µg/mL (≈ 2.18 µM) and 2 µg/mL (≈ 4.36 µM), respectively. Moreover, the figures for the IC50 in assay [3] (Table 2) and in assay [4] were 3.1 nM and 48 nM, respectively.
The matching figures for `CCOc1cc(Cc2cnc(N)nc2N)cc(OS(=O)(=O)N(C)CC)c1-c1ccc(N)cc1` [Example 22-b, N-Ethyl-N-methyl-sulphamic acid 4′-amino-4-(2,4-diamino-pyrimidin-5-ylmethyl)-6-ethoxy-biphenyl-2-yl ester]: 1 µg/mL (≈ 2.12 µM), 1 µg/mL (≈ 2.12 µM), 2.3 nM and 38 nM.
The matching figures for `CCOc1cc(Cc2cnc(N)nc2N)cc(OS(=O)(=O)N2CCCC2)c1-c1ccc(N)cc1` [Example 22-c, Pyrrolidine-1-sulphonic acid 4′-amino-4-(2,4-diamino-Ryrimidin-5-ylmethyl)-6-ethoxy-biphenyl-2-yl ester]: 1 µg/mL (≈ 2.06 µM), 1 µg/mL (≈ 2.06 µM), 3.3 nM and 140 nM.
For `CCOc1cc(Cc2cnc(N)nc2N)cc(OS(=O)(=O)N2CCOCC2)c1-c1ccc(N)cc1` [Example 22-d, Morpholine-4-sulphonic acid 4′-amino-4-(2,4-diamino-pyrimidin-5-ylmethyl)-6-ethoxy-biphenyl-2-yl ester], the MIC is 1 µg/mL (≈ 2 µM) in assay [1] (Table 2) and 2 µg/mL (≈ 4 µM) in assay [2] (Table 2). The IC50 turned out to be 6.1 nM in assay [3] (Table 2) and 45 nM in assay [4].
For `CCOc1cc(Cc2cnc(N)nc2N)cc(OS(=O)(=O)N(CC)CC)c1-c1ccc(N)cc1` [Example 22-f, Diethylsulphamic acid 4′-amino-4-(2,4-diamino-pyrimidin-5-ylmethyl)-6-ethoxy-biphenyl-2-yl ester], the MIC in assay [1] (Table 2) was 1 µg/mL (≈ 2.06 µM); in assay [2] (Table 2), 2 µg/mL (≈ 4.11 µM). The IC50 is 14 nM in assay [3] (Table 2) and 150 nM in assay [4].
With `CCOc1cc(Cc2cnc(N)nc2N)cc(OS(=O)(=O)N(C)C2CC2)c1-c1ccc(N)cc1` [Example 22e, N-Cyclopropyl-N-methyl-sulphamic acid 4′-amino-4-(2,4-diamino-pyrimidin-5-ylmethyl)-6-ethoxy-biphenyl-2-yl ester], the MIC stood at 1 µg/mL (≈ 2.06 µM) in assay [1] (Table 1) and 2 µg/mL (≈ 4.13 µM) in assay [2] (Table 1). In addition, the IC50 in assay [3] (Table 1) is 13 nM; in assay [4], 150 nM.
With `CCOc1cc(Cc2cnc(N)nc2N)cc(OCC2CC2)c1-c1ccc(CN2CCOCC2)s1` [Example 23-, 5-[3-Cyclopropylmethoxy-5-ethoxy-4-(5-morpholin-4-ylmethyl-thiophen-2-yl)-benzyl]-pyrimidine-2,4-diamine], the MIC stood at 1 µg/mL (≈ 2.02 µM) in assay [1] (Table 2) and 8 µg/mL (≈ 16.1 µM) in assay [2] (Table 2). For the same molecule, the IC50 in assay [3] (Table 2) amounted to 8 nM; in assay [4] it was 2600 nM.
In the case of `CCOc1cc(Cc2cnc(N)nc2N)cc(OS(=O)(=O)C2CC2)c1-c1ccc(CN2CCOCC2)s1` [Example 24-, Cyclopropanesulphonic acid 5-(2,4-diamino-pyrimidin-5-ylmethyl)-3-ethoxy-2-(5-morpholin-4-ylmethyl-thiophen-2-yl)-phenyl ester], the results for the MIC in assay [1] (Table 2) and in assay [2] (Table 2) were 1 µg/mL (≈ 1.83 µM) and 4 µg/mL (≈ 7.33 µM), respectively. In addition, the results for the IC50 in assay [3] (Table 2) and in assay [4] were 16 nM and 190 nM, respectively.
The matching figures for `CCOc1cc(Cc2cnc(N)nc2N)cc(OS(=O)(=O)N(C)C)c1-c1ccc(NC)cc1` [Example 26-a, Dimethylsulphamic acid 4-(2,4-diamino-pyrimidin-5-ylmethyl)-6-ethoxy-4′-methylamino-biphenyl-2-yl ester]: 1 µg/mL (≈ 2.12 µM), 1 µg/mL (≈ 2.12 µM), 2.1 nM and 130 nM.
The matching figures for `CCOc1cc(Cc2cnc(N)nc2N)cc(OS(=O)(=O)N(C)CC)c1-c1ccc(NC)cc1` [Example 26-b, N-Ethyl-N-methyl-sulphamic acid 4-(2,4-diamino-pvrimidin-5-ylmethyl)-6-ethoxy-4′-methylamino-biphenyl-2-yl ester]: 1 µg/mL (≈ 2.06 µM), 1 µg/mL (≈ 2.06 µM), 1.9 nM and 170 nM.
`CCOc1cc(Cc2cnc(N)nc2N)cc(OS(=O)(=O)N(C)C2CC2)c1-c1ccc(NC)cc1` [Example 26-d, N-Cyclopropyl-N-methyl-sulphamic acid 4-(2,4-diamino-pyrimidin-5-ylmethyl)-6-ethoxy-4′-methylamino-biphenyl-2-yl ester]: the MIC in assay [1] (Table 2) and in assay [2] (Table 2) was 1 µg/mL (≈ 2.01 µM) in each case. The IC50 came out at 5.1 nM in assay [3] (Table 2) and 140 nM in assay [4].
In the case of `CCOc1cc(Cc2cnc(N)nc2N)cc(OS(=O)(=O)N2CCCC2)c1-c1ccc(NC)cc1` [Example 26-e, Pyrrolidine-1-sulphonic acid 4-(2,4-diamino-pyrimidin-5-ylmethyl)-6-ethoxy-4′-methylamino-biphenyl-2-yl ester], the MIC in assay [1] (Table 2) and in assay [2] (Table 2) was 1 µg/mL (≈ 2.01 µM) throughout. Besides, the results for the IC50 in assay [3] (Table 2) and in assay [4] were 2.3 nM and 130 nM, respectively.
On to `CCOc1cc(Cc2cnc(N)nc2N)cc(OS(=O)(=O)N(CC)CC)c1-c1ccc(NC)cc1` [Example 26-f, Diethylsulphamic acid 4-(2,4-diamino-pyrimidin-5-ylmethyl)-6-ethoxy-4′-methylamino-biphenyl-2-yl ester], for which the MIC was 1 µg/mL (≈ 2 µM) in assay [1] (Table 2) and 2 µg/mL (≈ 4 µM) in assay [2] (Table 2). For the same molecule, the figures for the IC50 in assay [3] (Table 2) and in assay [4] were 8.8 nM and 230 nM, respectively.
For `CCOc1cc(Cc2cnc(N)nc2N)cc(OS(=O)(=O)N2CCOCC2)c1-c1ccc(NC)cc1` [Example 26c, Morpholine-4-sulphonic acid 4-(2,4-diamino-pyrimidin-5-ylmethyl)-6-ethoxy-4′-methylamino-biphenyl-2-yl ester], the figures for the MIC in assay [1] (Table 1) and in assay [2] (Table 1) were 0.5 µg/mL (≈ 0.972 µM) and 1 µg/mL (≈ 1.94 µM), respectively. For the same molecule, the values for the half-inhibitory concentration (IC50) in assay [3] (Table 1) and in assay [4] were 3.2 nM and 56 nM, respectively.
